Laboratory results reported in patent US20060008491A1, “Eremophilone and eremophilone derivatives for pest control” (priority 2002, published 2006).

Tested on: Coptotermes acinaciformis
Type: in vivo
Conditions: HPLC fractions of steam distilled oil
Experimental: A number of samples were assessed for termiticidal activity. The steam distilled oil product was separated into thirty fractions using reverse phase preparative HPLC, methanol:water (80:20). Fractions were re-analysed by GC-MS and recombined to provide eight fractions. Three fractions contained pure components, the other fractions contained mixtures of minor components of the oil. Six fractions together with the whole oil distillate, and the methanol and hexane extracts were tested on the workers of the termites Nasutitermes walkeri and Coptotermes acinaciformis as follows.
Twenty uniform termite workers were transferred to 90 mm diam. petri dishes lined with the same diameter moistened filter paper (Whatman No 2). […]
A 5 ml aliquot was applied to each petri dish with a Potter precision spray tower as described by Herron et al (995). The average weight of the solution sprayed on each dish was calculated to be 3.95 mg/cm^2. […] Mortality was normally recorded 24 h after treatment. […] Probit analysis was carried out for dose-mortality data and heterogeneity of regressions was determined by the Pearson chi-squared characteristic.

Compound: C=C(C)[C@@H]1CC(=O)C2=CCC[C@H](C)[C@@]2(C)C1 [EM-1, Eremophilone]
- termiticidal activity: significant termiticidal activity
